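These data come from cells grown in 96-well plates and exposed to compound for 48 hours at five concentrations. GI50 = concentration required for 50% inhibition of growth. TGI marks complete inhibition of growth.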 Where a SMILES comes first, the peptide text is derived from it. [ ]: non-standard residue; d: D form. Phe(4-Cl) = N[CH](Cc1ccc(Cl)cc1)C(=O)O
Experiments:
Experiment in all cases: DTP human tumour cell line panel, 48 h
COLO 205 colon = system: COLO 205 colon
LOX IMVI melanoma = system: LOX IMVI melanoma
NCI-H226 lung = system: NCI-H226 lung
SF-268 CNS = system: SF-268 CNS
SF-539 CNS = system: SF-539 CNS
SK-MEL-28 melanoma = system: SK-MEL-28 melanoma
SNB-19 CNS = system: SNB-19 CNS
RXF 393 renal = system: RXF 393 renal
SK-OV-3 ovarian = system: SK-OV-3 ovarian
DU-145 prostate = system: DU-145 prostate

SMILES	TGI (COLO 205 colon) [µM]	TGI (LOX IMVI melanoma) [µM]	TGI (NCI-H226 lung) [µM]	TGI (SF-268 CNS) [µM]	TGI (SF-539 CNS) [µM]	TGI (SK-MEL-28 melanoma) [µM]	TGI (SNB-19 CNS) [µM]	TGI (RXF 393 renal) [µM]	TGI (SK-OV-3 ovarian) [µM]	TGI (DU-145 prostate) [µM]	GI50 (COLO 205 colon) [µM]	GI50 (DU-145 prostate) [µM]	GI50 (LOX IMVI melanoma) [µM]	GI50 (NCI-H226 lung) [µM]	GI50 (SF-268 CNS) [µM]	GI50 (SF-539 CNS) [µM]	GI50 (SK-MEL-28 melanoma) [µM]	GI50 (SK-OV-3 ovarian) [µM]	GI50 (SNB-19 CNS) [µM]	GI50 (RXF 393 renal) [µM]
CN(C)P(=O)(/C(N)=N/Nc1ccc([N+](=O)[O-])cc1)N(C)C	> 100	> 100	> 100	> 100	> 100	> 100	> 100													
CC(O)C(NC(=O)C(Cc1ccccc1)NC(=O)C(NC(=O)C(CCCCN)NC(=O)C(Cc1c[nH]c2ccccc12)NC(=O)C(Cc1ccc(O)cc1)NC(=O)C(Cc1ccc(Cl)cc1)NC(=O)C(N)Cc1ccccc1)C(C)O)C(N)=O (stereo not drawn) (H-F[Phe(4-Cl)]YWKTFT-NH2; configuration not given here)	51.7				42.3	41.8	34.1	30.3	46.4											
CC(C)N(C(=O)C12CC3CC(CC(C3)C1)C2)C(C)C	> 50	> 50	> 50	> 50	> 50	> 50	> 50	> 50	> 50											
CC(C)=CCC/C(=C/CC/C(C)=C/CCc1ccoc1)C(=O)O	> 100	> 100	> 100	> 100	> 100	> 100	> 100	> 100	> 100											
CN(C)CCNC(=O)c1cccc(C(=O)Nc2ccccc2)c1[N+](=O)[O-]	> 100		> 100	> 100	> 100	> 100	> 100		> 100	> 100										
O=C(c1cccc(O)c1O)c1cn(Cc2ccc(F)cc2)c2cccc(O)c12	10.7	16.1	43.8	16.2	11.2	19.5	17		16	17.3	2.77	5.1	2.58	15.9	3.51	2.49	6.01	4.49	3.97	
NC(N)=NCCCn1c2c(c3ccccc3c1=O)C(=O)c1ccccc1-2	79.7	28.8		9.45	2.14	> 100	98.2	42.4	> 100	22.9	21.2	7.59	14.4		1.53	0.369	28.6	34.2	18.5	7.82
Cc1ccccc1N(CCC#N)C1=NN(C(=O)CC(=O)Nc2ccccc2)C(c2ccccc2)C1 (stereo not drawn)	> 100		> 100	> 100	> 100	> 100	> 100	> 100	> 100											
CCN(CC)CCN1CC(O)=C(c2nc(-c3ccc(Cl)cc3)cs2)C1=N	4	3.43	3.88	3.93	3.11	3.49	4.5		25.2	62.4	2.04	7.26	1.83	1.85	1.87	1.55	1.86	4.76	2.1	
COC(=O)C1=NC(=S)NC(c2ccccc2)C1c1nc2ccccc2s1 (stereo not drawn)	> 100		> 100	> 100	> 100	> 100	> 100	> 100	> 100											
CCCCCCCCCCCCCC1CCC(CC)N1 (stereo not drawn)	28.9	32	30.2	22.4	32.1	18.6	30.7	33	30.7											
COc1ccc(-c2cn3ccsc3n2)cc1	> 100	> 100	> 100	> 100	> 100	> 100	> 100		> 100											
N.N.N.N.N.O=C([O-])c1nn[n-]n1.[Cl-].[Co+3]	> 100	> 100	> 100	> 100	> 100	> 100	> 100	> 100	> 100		> 100		> 100	> 100	> 100	> 100	> 100	> 100	> 100	> 100
CCOC(=O)NC(=O)c1cn(CCOCCOC(=O)NCCCCCCNC(=O)OCCOCCn2cc(C(=O)NC(=O)OCC)c(=O)[nH]c2=O)c(=O)[nH]c1=O	> 100	> 100		> 100	> 100	> 100	> 100	> 100	> 100											
CCOC(=O)c1c(CN2CCN(c3ccccc3)CC2)n(-c2ccccc2)c2cc(Br)c(O)cc12	41.7	11.1	30.9	41.4	34.9	42.1	53.5		80.9	28.2	21.3	12.5	3.1	15.4	9.63	15.5	16.6	34	21	
COc1ccc(C(=O)c2cc(C)c(OC)c(C)c2)c(OC)c1N(C(=O)C(Cl)Cl)C(=O)C(Cl)Cl	4.14	> 100	0.468	> 100	0.206	> 100	> 100		> 100	> 100	0.156	0.0392	0.159	0.0468	1.01	0.0343	0.237	0.052	0.0492	
CCOC1=NC(=O)CC(c2ccccc2)S1 (stereo not drawn)	> 100	> 100	> 100	> 100	> 100		> 100	> 100												
CC1=C(C)CC2(CCCCC2=O)S(=O)C1 (stereo not drawn)	> 100	> 100	> 100	> 100	> 100	> 100	> 100	> 100	> 100											
Cn1cc(C(=O)c2ccccc2)ccc1=O	> 100	> 100	> 100	> 100	> 100	> 100	> 100	> 100	> 100											
